Where a name gives a salt, the structure may show the parent alone.
Tests used:
[1] = system: Klebsiella pneumoniae expressing KPC-1 (CL6569); experiment: Antibiotic activity: growth inhibitory concentration (OD600), Klebsiella pneumoniae CL6569; assay type: cell-based; conditions: lowest concentration inhibiting 95% of bacterial growth, in the presence of β lactamase inhibitor Relebactam 4 μg/mL, 35±2° C. for 22 hours, tested range 100 μM to 0.098 μM
Method: (§1) Antibiotic Activity: Determination of Growth Inhibitory Concentration
(§2) The concentrations of compounds required to inhibit the growth of various strains of bacteria were determined in an assay that assessed bacterial growth by measuring optical density at 600 nm (OD600). The bacterial strains tested included the clinical strains Escherichia coli expressing NDM-1 (CLB30016), Klebsiella pneumoniae expressing KPC-1 (CL6569), Acinetobacter baumannii expressing TEM-1, AmpC, and Oxa-24/40 (CL6188) and Pseudomonas aeruginosa expressing AmpC (CL5701). All compounds were tested in the presence of a β lactamase inhibitor (BLi, Relebactam) in 384-well microplates. The clinical strains were stored as frozen single use stocks, thawed and diluted into 1.1× cation-adjusted Mueller-Hinton II broth to achieve approximately 2×10^5 CFU/mL. Test compounds were dissolved in DMSO and diluted 1:50 in the assay, resulting in a final concentration range of 100 μM to 0.098 μM. On the day of the assay, 1 μL of test compound was added to the plate followed by 4 μL of 50 μg/mL BLi in MOPS buffer and 45 μL of diluted bacteria. Plates were centrifuged at 1000 rpm for 30 seconds, shaken at approximately 800 rpm for 1 minute, and incubated at 35±2° C. for 22 hours. The concentration of BLi used in the assay was 4 μg/mL. At the end of the incubation, absorbance at 600 nm was determined using a spectrophotometer. Inhibition was quantitated by identifying the lowest concentration of test compound that was required to inhibit 95% of the growth of the bacteria. The results for Examples 1-126 are reported in Table I, expressed as the concentration of compound that inhibited 95% of bacterial growth (Minimum Inhibitory Threshold Concentration; MITC95).

[2] = system: Pseudomonas aeruginosa expressing AmpC (CL5701); experiment: Antibiotic activity: growth inhibitory concentration (OD600), Pseudomonas aeruginosa CL5701; assay type: cell-based; conditions: lowest concentration inhibiting 95% of bacterial growth; in the presence of β lactamase inhibitor Relebactam 4 μg/mL; 35±2° C. for 22 hours; tested range 100 μM to 0.098 μM
Method: as §1, §2

SMILES | KP_CL6569 MITC95 ([1]; 2,2,2-trifluoroacetate) | PA_CL5701 MITC95 [2] | KP_CL6569 MITC95 [1]
C[n+]1cc(-c2ccc(OCC(C)(O/N=C(\C(=O)N[C@@H]3C(=O)N(OS(=O)(=O)O)C3(C)C)c3csc(N)n3)C(=O)O)cc2)cn1CCCN (single isomer, unassigned) [Example 23A, 2,2,2-trifluoroacetate] | 0.3906 µM | 3.125 µM | –
C[n+]1cc(-c2ccc(OC[C@](C)(O/N=C(\C(=O)N[C@@H]3C(=O)N(OS(=O)(=O)O)C3(C)C)c3csc(N)n3)C(=O)O)cc2)cn1CCCN (single isomer, unassigned) [Example 23B, 2,2,2-trifluoroacetate] | – | 25 µM | 3.125 µM
C[n+]1cc(-c2ccc(OC[C@H](O/N=C(\C(=O)N[C@@H]3C(=O)N(OS(=O)(=O)[O-])C3(C)C)c3csc(N)n3)C(=O)O)cc2F)cn1C[C@@H](O)CN.O=CO (single isomer, unassigned) [Example 43] | – | 3.125 µM | 0.1953 µM
C[n+]1cc(-c2ccc(OC[C@H](O/N=C(\C(=O)N[C@@H]3C(=O)N(OS(=O)(=O)O)C3(C)C)c3csc(N)n3)C(=O)O)cc2F)cn1CC(N)CN (single isomer, unassigned) [Example 45] | – | 6.25 µM | 0.3906 µM
C[n+]1cc(-c2ccc(OC[C@H](O/N=C(\C(=O)N[C@@H]3C(=O)N(OS(=O)(=O)O)C3(C)C)c3csc(N)n3)C(=O)O)cc2F)cn1CC(N)CN (single isomer, unassigned) [Example 46] | – | 6.25 µM | 0.3906 µM
Cn1c(-c2ccc(OC[C@H](O/N=C(\C(=O)N[C@@H]3C(=O)N(OS(=O)(=O)O)C3(C)C)c3csc(N)n3)C(=O)O)cc2)cn(CC(O)CN)c1=N (single isomer, unassigned) [Example 56] | – | 3.125 µM | 0.3906 µM
C[n+]1cc(-c2ccc(OC(CO/N=C(\C(=O)N[C@@H]3C(=O)N(OS(=O)(=O)[O-])C3(C)C)c3csc(N)n3)C(=O)O)cc2)cn1CCCN (single isomer, unassigned) [Example 85] | – | 40 µM | 2.5 µM
C[n+]1cc(-c2ccc(CCC(O/N=C(\C(=O)N[C@@H]3C(=O)N(OS(=O)(=O)[O-])C3(C)C)c3csc(N)n3)C(=O)O)cc2)cn1CCCN (single isomer, unassigned) [Example 93] | – | 6.25 µM | 0.1953 µM
CC1(C)[C@H](NC(=O)/C(=N\O[C@@H](COc2ccc(-c3cn(CCCN)[n+](CC(F)CN)c3)cc2)C(=O)O)c2csc(N)n2)C(=O)N1OS(=O)(=O)[O-] (single isomer, unassigned) [Example 120] | – | 3.125 µM | 0.1953 µM
CC1[C@H](NC(=O)/C(=N\O[C@@H](COc2ccc(-c3cnn(CCCN)c3)cc2)C(=O)O)c2csc(N)n2)C(=O)N1S(=O)(=O)O (stereo in doubt) [Example 8, (S)-3-(4-(1-(3-aminopropyl)-1H-pyrazol-4-yl)phenoxy)-2-((((Z)-1-(2-aminothiazol-4-yl)-2-(((2R,3S)-2-methyl-4-oxo-1-sulfoazetidin-3-yl)amino)-2-oxoethylidene)amino)oxy)propanoic acid] | – | 25 µM | 3.125 µM
C[n+]1cc(-c2ccc(OCC(C)(O/N=C(\C(=O)N[C@@H]3C(=O)N(OS(=O)(=O)O)C3(C)C)c3nc(N)sc3Cl)C(=O)O)cc2)cn1CCCN (stereo in doubt) [Example 51A, (S)-3-((Z)-2-(2-Amino-5-chlorothiazol-4-yl)-2-((((R)-1-(4-(1-(3-aminopropyl)-2-methyl-1H-pyrazol-2-ium-4-yl)phenoxy)-2-carboxypropan-2-yl)oxy)imino)acetamido)-2,2-dimethyl-4-oxoazetidin-1-yl sulfate] | – | 3.125 µM | 0.7813 µM
Cn1c(-c2ccc(OC[C@H](O/N=C(\C(=O)N[C@@H]3C(=O)N(OS(=O)(=O)O)C3(C)C)c3csc(N)n3)C(=O)O)cc2)cn(CCCN)c1=NCCN (stereo in doubt) [Example 57, (S)-3-(4-((Z)-2-((2-aminoethyl)imino)-1-(3-aminopropyl)-3-methyl-2,3-dihydro-1H-imidazol-4-yl)phenoxy)-2-((((Z)-1-(2-aminothiazol-4-yl)-2-(((S)-2,2-dimethyl-4-oxo-1-(sulfooxy)azetidin-3-yl)amino)-2-oxoethylidene)amino)oxy)propanoic acid] | – | 3.125 µM | 0.1953 µM
CC1(C)[C@H](NC(=O)/C(=N\OC(COc2ccc(C(N)CNC3=NCCN3)cc2)C(=O)O)c2csc(N)n2)C(=O)N1OS(=O)(=O)O (stereo in doubt) [Example 59, (R)-3-(4-((S)-1-amino-2-((4,5-dihydro-1H-imidazol-2-yl)amino)ethyl)phenoxy)-2-((((Z)-1-(2-aminothiazol-4-yl)-2-(((S)-2,2-dimethyl-4-oxo-1-(sulfooxy)azetidin-3-yl)amino)-2-oxoethylidene)amino)oxy)propanoic acid] | – | 12.5 µM | 3.125 µM
C[n+]1cc(-c2ccc(OC[C@H](O/N=C(\C(=O)N[C@@H]3C(=O)N(OS(=O)(=O)[O-])C3(C)C)c3csc(N)n3)C(=O)O)cc2)cn1CCCN [Example 1, (S)-3-((Z)-2-(2-aminothiazol-4-yl)-2-(((S)-2-(4-(1-(3-ammoniopropyl)-2-methyl-1H-pyrazol-2-ium-4-yl)phenoxy)-1-carboxyethoxy)imino)acetamido)-2,2-dimethyl-4-oxoazetidin-1-yl sulfate 2,2,2-trifluoroacetate] | – | 3.125 µM | 0.3906 µM
C[n+]1cn(CCCN)cc1-c1ccc(OC[C@H](O/N=C(\C(=O)NC2C(=O)N(OS(=O)(=O)[O-])C2(C)C)c2csc(N)n2)C(=O)O)cc1 (stereo partly drawn) [Example 2, (S)-3-((Z)-2-(2-aminothiazol-4-yl)-2-(((S)-2-(4-(1-(3-ammoniopropyl)-3-methyl-1H-imidazol-3-ium-4-yl)phenoxy)-1-carboxyethoxy)imino)acetamido)-2,2-dimethyl-4-oxoazetidin-1-yl-sulfate] | – | 3.125 µM | 0.3906 µM
C[n+]1cc(-c2c(F)cc(OC[C@H](O/N=C(\C(=O)N[C@@H]3C(=O)N(OS(=O)(=O)O)C3(C)C)c3csc(N)n3)C(=O)O)cc2F)cn1CCCN.O=C(O)C(F)(F)F [Example 3, (S)-3-((Z)-2-(((S)-2-(4-(1-(3-aminopropyl)-2-methyl-1H-pyrazol-2-ium-4-yl)-3,5-difluorophenoxy)-1-carboxyethoxy)imino)-2-(2-aminothiazol-4-yl)acetamido)-2,2-dimethyl-4-oxoazetidin-1-yl sulfate compound with 2,2,2-trifluoroacetic acid (1:1)] | – | 6.25 µM | 0.39 µM
C[n+]1cc(-c2ccc(OCCO/N=C(\C(=O)N[C@@H]3C(=O)N(OS(=O)(=O)O)C3(C)C)c3csc(N)n3)cc2)cn1CCCN [Example 4, (S,Z)-3-(2-((2-(4-(1-(3-aminopropyl)-2-methyl-1H-pyrazol-2-ium-4-yl)phenoxy)ethoxy)imino)-2-(2-aminothiazol-4-yl)acetamido)-2,2-dimethyl-4-oxoazetidin-1-yl sulfate] | – | 25 µM | 1.281 µM
CC1(C)[C@H](NC(=O)/C(=N\OCCOc2ccc(-c3cnn(CCCN)c3)cc2)c2csc(N)n2)C(=O)N1OS(=O)(=O)O [Example 5, (S,Z)-3-(2-((2-(4-(1-(3-aminopropyl)-1H-pyrazol-4-yl)phenoxy)ethoxy)imino)-2-(2-aminothiazol-4-yl)acetamido)-2,2-dimethyl-4-oxoazetidin-1-yl sulfate] | – | 50 µM | 6.25 µM
C[C@H]1[C@H](NC(=O)/C(=N\O[C@@H](COc2ccc(-c3cnn(CCCN)c3)cc2)C(=O)O)c2csc(N)n2)C(=O)N1S(=O)(=O)O [Example 6, (S)-3-(4-(1-(3-aminopropyl)-1H-pyrazol-4-yl)phenoxy)-2-((((Z)-1-(2-aminothiazol-4-yl)-2-(((2S,3S)-2-methyl-4-oxo-1-sulfoazetidin-3-yl)amino)-2-oxoethylidene)amino)oxy)propanoic acid] | – | 100 µM | 12.5 µM
C[C@H]1[C@H](NC(=O)/C(=N\O[C@@H](COc2ccc(-c3cn(CCCN)[n+](C)c3)cc2)C(=O)O)c2csc(N)n2)C(=O)N1S(=O)(=O)[O-] [Example 7, (2S,3S)-3-((Z)-2-(((S)-2-(4-(1-(3-aminopropyl)-2-methyl-1H-pyrazol-2-ium-4-yl)phenoxy)-1-carboxyethoxy)imino)-2-(2-aminothiazol-4-yl)acetamido)-2-methyl-4-oxoazetidine-1-sulfonate] | – | 12.5 µM | 1.563 µM

From US11230543B2, “Biaryl monobactam compounds and methods of use thereof for the treatment of bacterial infections” (priority 2015, dated 2022)
